The record followed here is patent publication US20050123536A1, “Treatment of immunological disorders using anti-dc30 antibodies” (priority 2001, published 2005).

“And” between values parts separate entries of the source, which are not always exact repeats. Equal values may be shown once. “Also recorded” adds a separate entry of the source.

For experiment [1], the system named is Jurkat T cells. Kind of experiment: Jurkat T cell proliferation, 3H-TdR incorporation, anti-CD30 mAbs with or without secondary cross-linking Ab. In kind it is cell-based, human. Particulars: for inhibition of Jurkat T cell proliferation by immobilized mAb: mAb immobilized onto TC wells, data not shown; for inhibition of thymidine incorporation in Jurkat cells: secondary cross-linking antibody used. The method, then:
FIG. 2. […] Proliferation was assessed by a pulse of tritiated thymidine (^3H-TdR) during the last 4 hours of a 72 hour incubation.
FIG. 3. […] Proliferation was assessed by a pulse of ^3H-TdR during the last 4 hours of a 48-hour incubation.
The effect of signaling through CD30 by anti-CD30 on the proliferation of Jurkat T cells was assessed by tritiated thymidine (^3H-TdR) incorporation assays. Jurkat cells were treated with soluble anti-CD30 in graded doses or anti-CD30 cross-linked by a secondary cross-linking antibody (Ab). […] Final ratios of 1:2.5, 1:5, and 1:10 between the primary mAbs and secondary cross-linking antibodies were used. Antibody cocktails were allowed to incubate at room temperature for 15 minutes. Serial dilutions of these antibody cocktails in culture medium were then prepared to achieve the desired final concentrations. One hundred ill of antibody cocktails were then mixed with 100 μl Jurkat cell suspension containing 5000 cells in 96-well tissue culture (TC) plates. Cells were incubated with the antibody cocktails for 44 hours before a 4-hour pulse with 1 μCi of ^3H-TdR. Cells were then harvested onto filters, and incorporated tritiated thymidine was measured by scintillation counting. Thymidine incorporation values obtained from the treated cells were then compared to the untreated control cultures.
For orientation: Uptake of a labelled nucleoside into DNA is a usual measure of proliferation.

The subject of experiment [2] is Jurkat T cells. Kind of experiment: Apoptosis by Annexin V binding and permeability to PI. In kind it is cell-based, human. Particulars: primary mAb 2 μg/ml, 10-fold excess GAM. As for the experimental part:
FIG. 7. […] Anti-CD30 and anti-CD3 mAbs were used at 2 μg/ml. GAM secondary Ab was used in 10-fold excess to cross-link the primary mAbs. Binding of FITC-conjugated Annexin V enabled the detection of cells undergoing apoptosis. Membrane permeability to PI was used to detect dead cells that had lost membrane integrity. In the figure, Annexin V^−/PI^− events represent live cells (lower left quadrant), Annexin V^+/PI^− events represent apoptotic cells (lower right quadrant), and Annexin V^+/PI^+ events represent dead cells (upper right quadrant). Numbers outside of the density plots denote the percentage of cells present in each of the quadrants.
Primary mAbs were used at a final concentration of 2 μg/ml. A 10-fold excess of GA-M antibody was used to cross-link the primary antibodies. After an incubation of 15 minutes at room temperature, antibody cocktails were added to Jurkat cells. At the times designated in FIG. 7, percentages of apoptotic and dead cells in the cultures were determined by Annexin V binding and permeability to PI using the Annexin V-FITC Apoptosis Detection Kit I (BD PharMingen, San Diego, Calif.) according to the manufacturer's instruction. […]

Experiment [3] deals with Jurkat T cells. Kind of experiment: Cell cycle disposition, DNA synthesis and DNA fragmentation (apoptosis) by PI and anti-BrdU staining. Particulars: for DNA fragmentation in Jurkat cells: mAb cross-linked by goat anti-mouse IgG Fc, after 24 and 48 hours. In kind it is cell-based, human.
Experimental: The relationship between cell cycle status and DNA replication in Jurkat cells treated with cross-linked anti-CD30 in Abs was further investigated. […] The antibody cocktails were allowed to incubate at room temperature for 15 minutes. Serial 1:10 dilutions of these antibody cocktails in culture medium were then prepared. One ml of antibody cocktails was then mixed with 1 ml of Jurkat cell suspension containing 0.25×10^6 cells in 12-well TC plates.
After 24 or 48 hours of incubation, cells were harvested by centrifugation and resuspended in 2 ml of fresh medium equilibrated at 37° C. Bromodeoxyuridine (BrdU) (Sigma, St. Louis, Mo.) was used to label cells that were actively synthesizing DNA. Twenty μl of 1 mM BrdU dissolved in water were added to the cell suspension, and the incubation continued at 37° C. for 15 minutes. Cells were then spun down, washed once with PBS, and resuspended in 0.5 ml of ice-cold PBS. One ml of 100% ethanol at −20° C. was added drop-wise to the cell suspension for cell fixation. After fixation at 4 C for 30 minutes, fixed cells were spun down. The cell pellets were resuspended in 1 ml of 2 M HCl with 0.5% Triton X-100 (Sigma) and incubated for 30 minutes at room temperature before cells were spun down. One ml of 0.1 M Na2B4O7 at pH 8.5 was used to resuspend the cell pellets and to neutralize the acid for 10 minutes at room temperature. Cells were then pelleted by centrifugation and washed once with PBS containing 0.5% Tween 20 (Sigma) and 1% BSA. […] Cells were then washed twice with PBS, 0.5% Tween 20, 1% BSA, and then resuspended in 0.5 ml of PBS containing 5 μg/ml of propidium iodide (PI) (Sigma) to quantify DNA contents in cells. […]
Jurkat T cells were treated with either anti-CD30 mAb alone, anti-CD3 mAb, alone, or a combination of anti-CD30 and anti-CD3 mAbs. […] Cell cycle distribution was determined by BrdU and PI staining as in FIG. 4.
The target in experiment [4] is CD3 (human). Description: cell-based or functional assay.
For experiment [5], the system named is T lymphocyte clones 40E10 and 40H7. Description: Apoptosis induction in T cell clones by Annexin V binding and permeability to PI. Particulars: 1 μg/ml of ADC, 4S-hour incubation. In kind it is cell-based, human. As for the experimental part: FIG. 21. […] After 48 hr of incubation, Annexin V binding and permeability of PI were used to assess the extent of apoptosis induction.

The test system of experiment [6] is activated naïve T lymphocytes (CD45RO-). Kind of experiment: Proliferation of activated naïve T lymphocytes, 3H-TdR. In kind it is cell-based, human. The note with it: compared to memory T lymphocytes or T lymphocyte clones. As for the experimental part:
As PBMC are made up of different subsets of lymphocytes, the response of one cellular subset toward cAC10 ADCs may easily be masked by other subsets. In order to examine this possibility, total T lymphocytes, naïve and memory T lymphocytes were enriched from PBMC by negative immuno-selection. Briefly, PBMCs were incubated with one of the following antibody cocktails, containing saturating quantities of antibodies, at a final concentration of 20×10^6 cells/ml on ice for 20 minutes. To enrich for total T lymphocytes, the antibody cocktail contained anti-CD 14 (BD PharMingen), anti-CD16 (BD PharMingen), and anti-CD20 (BD PharMingen). To enrich for naïve T lymphocytes (CD45RO^−), the antibody cocktail contained anti-CD14, anti-CD16, anti-CD20, and anti-CD45RO (BD PharMingen). To enrich for memory T lymphocytes (CD45RA^−), the antibody cocktail contained, anti-CD14, anti-CD16, anti-CD20, and anti-CD45RA (BD PharMingen). […]
Activation-induced expression of CD30 on different T cell subsets was then examined. […] After 72 hours of incubation, the expression of CD30 on both CD4 and CDS cells in the different cultures was determined by flow cytometry, also as outlined in Example 6. Expression of CD30 was detected on both CD4 and CDS cells regardless of whether the starting population was total, naïve, or memory T lymphocytes (FIG. 12). […]

Experiment [7] has as its system Jurkat T cells. Description: Growth inhibition of Jurkat T cells by ADC, 3H-TdR pulse. Particulars: 80 hours incubation + 16 hour 3H-TdR pulse. In kind it is cell-based, human. The method, then: FIG. 9. […] Cells were exposed to the ADCs continuously for a total of 96 hr. Proliferation was assessed by a pulse of H-TdR during the last 16 hours of incubation.
Five thousand Jurkat T cells in 100 μl of medium were seeded in 96-well TC plates. […] After 80 hours of incubation, cellular DNA synthesis was assessed by a 16 hour ^3H-TdR pulse.

Experiment [8] relates to 10 CD30+ T lymphocyte clones. Kind of experiment: Summary of efficacies of cAC10 ADCs on proliferation of CD30+ T lymphocyte clones. In kind it is cell-based, human. The note with it: FIG. 23 summary. From the text: The following trend was observed. […] These clones have been expanded through multiple rounds of T cell receptor and cytokine stimulation, similar to chronically stimulated effector T cells involved in inflammatory and autoimmune responses.

In experiment [9] the target is CD30 (human) (UniProt P28908). Kind of experiment: cell-based or functional assay.
Sequence of CD30 (human) (P28908 19-595): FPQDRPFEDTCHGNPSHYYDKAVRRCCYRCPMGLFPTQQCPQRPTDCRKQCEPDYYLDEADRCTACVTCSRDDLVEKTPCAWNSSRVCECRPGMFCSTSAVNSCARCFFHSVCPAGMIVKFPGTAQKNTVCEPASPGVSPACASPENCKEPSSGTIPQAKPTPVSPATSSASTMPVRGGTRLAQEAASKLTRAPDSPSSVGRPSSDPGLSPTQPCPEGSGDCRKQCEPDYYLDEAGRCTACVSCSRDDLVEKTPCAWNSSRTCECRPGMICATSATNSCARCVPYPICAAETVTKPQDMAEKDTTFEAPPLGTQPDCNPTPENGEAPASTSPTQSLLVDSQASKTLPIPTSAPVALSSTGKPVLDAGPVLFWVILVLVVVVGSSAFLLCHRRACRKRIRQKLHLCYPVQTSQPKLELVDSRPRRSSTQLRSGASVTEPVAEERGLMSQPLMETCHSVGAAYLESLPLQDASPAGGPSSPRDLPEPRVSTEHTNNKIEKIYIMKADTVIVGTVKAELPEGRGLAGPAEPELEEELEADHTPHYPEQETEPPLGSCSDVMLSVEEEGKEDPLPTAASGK

Turning to “AC10: murine anti-CD30 mAb; variable regions SEQ ID NO:2 and 10”, in [1], the “inhibition of Jurkat T cell proliferation by immobilized mAb” value is on record as “active in inhibiting Jurkat T cell proliferation” and the “inhibition of thymidine incorporation in Jurkat cells” value is reported as “inhibited thymidine incorporation in Jurkat cell dose-dependently”. For the same molecule, in [2], the “earliest time of detectable apoptosis after incubation” value stood at 4 h. For the same molecule, in experiment [3], the “DNA fragmentation in Jurkat cells” value is reported as “detectable”. Further, in experiment [3] (single mAb cross-linked by goat anti-mouse IgG Fc, compared to medium control), the “apoptosis induction in Jurkat T cells (BrdU and PI staining)” value was “induced apoptosis”.

Consider anti-CD3 mAb OKT3 (antibody), for which the concentration giving the best synergy with AC10 for apoptosis in Jurkat T cells in experiment [4] was 0.2 µg/mL.

With “cAC10-fkMMAE: chimeric AC10 anti-CD30 antibody conjugated to MMAE via phenylalanine-lysine linker”, the “cells either apoptotic or dead” value in experiment [5] is reported as 44-48%.

As for “cAC10-vcAEFP: chimeric AC10 anti-CD30 antibody conjugated to AEFP via valine-citrulline linker”, the “sensitivity of naïve T lymphocytes to the ADC” value in experiment [6] is “less sensitive; also recorded: most refractory”.

As for “cAC10-vcMMAE: chimeric AC10 anti-CD30 antibody conjugated to MMAE via valine-citrulline linker”, the “sensitivity of naïve T lymphocytes to the ADC” value in experiment [6] is on record as “relatively refractory; also recorded: most refractory”. In experiment [7], the IC50 entry is on record as “approximately 0.1 μg/ml” and the “concentrations that significantly inhibited DNA synthesis” value is “higher than 0.001 μg/ml”. For the same molecule, the “sensitivity of T lymphocyte clones compared to memory T lymphocytes” value in experiment [8] is reported as “eight of the 10 T lymphocyte clones were found to be more sensitive”.

With “cAC10: chimeric AC10 (cAC10) anti-CD30 mAb”, in [1] (soluble, unconjugated (FIG. 2)), the “concentration with growth inhibitory effect on Jurkat cells” value is “higher than 1 μg/ml”. In experiment [1] (without secondary cross-linking), the “concentrations at which Jurkat cell proliferation was not inhibited” value is “below 1 μg/ml”.

Regarding cIgG-fkMMAE (antibody), in experiment [9], the percent of cells apoptotic or dead (Annexin V / PI), clones 40E10 and 40H7, 48 h with 1 µg/ml ADC (control for cAC10-fkMMAE) was 13% and 31%; the proliferation of activated Th2 clones 40E10 and 40H7 (3H-TdR); concentration needed for inhibition (control ADC) was above 0.1 µg/mL.

With “non-binding control IgG (cIgG)-vcMMAE (antibody)”, in [9], the Jurkat T cell DNA synthesis (3H-TdR), 96 h exposure; concentration needed for growth inhibition (control ADC) was above 0.1 µg/mL; the proliferation of activated Th2 clones 40E10 and 40H7 (3H-TdR); concentration needed for inhibition (control ADC) was above 2 µg/mL.

B1: HeFi-1: murine anti-CD30 mAb; variable regions SEQ ID NO:18 and 26 (antibody, listed as Mus musculus, V domains shown)
VH: EVKLVESGGGLVQPGGSLRLSCATSGFTFSDYYMNWVRQPPGKALEWLGFIRNKANGYTTEFSASVMGRFTISRDDSQSILYLQMNTLRAEDSATYYCARDPPYGNPHYYAMDYWGQGTSVTVSS
VL: DIVLTQSPASLAVSLGQRATISCRASKSVSASGYNYMHWYQQKAGQPPKLLIHLASNLESGVPARFSGSGSGTDFTLNIHPVEEEDASTYYCQHSGELPFTFGSGTKLEIK
Consider B1, for which, in experiment [1], the “inhibition of Jurkat T cell proliferation by immobilized mAb” value is listed as “active in inhibiting Jurkat T cell proliferation” and the “inhibition of thymidine incorporation in Jurkat cells” value is “inhibited thymidine incorporation in Jurkat cell dose-dependently”. Besides, in [2], the “earliest time of detectable apoptosis after incubation” value was determined as 4 h. Further, in [3], the “DNA fragmentation in Jurkat cells” value is “detectable”.
